# In patent US20210290524A1, “TOPICAL TRPV1 ANTAGONISTS AND METHODS AND COMPOSITIONS THEREOF” (CHILDREN'S MEDICAL CENTER CORPORATION, priority 2016, published 2021):
# Ends that are not written are not given here.
# How the values were obtained:
# TRPV1 [1] = target: T1, TRPV1 (Mus musculus, UniProt Q704Y3); assay: whole cell patch clamp of capsaicin-induced currents in primary murine DRG neurons; type: cell-based; parameters: capsaicin-induced currents in primary murine DRG neurons using whole cell patch clamp; endogenous in cells; host or cells: primary murine dorsal root ganglion (DRG) neurons; settings: for block of capsaicin-induced currents by opiorphin family peptides: DRG neurons
# [2] = test system: TrpV1 expressing afferents; assay: in vivo calcium imaging of injury-activated trigeminal ganglion neurons, topical capsaicin; parameters: species or system mouse; settings: topical 5 mM capsaicin after incision injury, 32 of 38 neurons
# Text: FIG. 9A is a micrograph of calcium imaging field in trigeminal ganglion of VGlut2^Cre; Rosa26^LSL-GCαMP6f mouse, with neurons active after injury highlighted. Scale bar is 100 μm. […] (The VGlut2^Cre; Rosa26^LSL-GCαMP6f mouse is generated by crossing a VGlut2-Cre mice with a […] mice, therefore the resulting double transgenic VGlut2^Cre; Rosa26^LSL-GCαMP6f mice express tD-Tomato (a red fluorescence protein) in all the sensory neurons but not in any other type of neuron. This allows for labeling and imaging of only sensory neurons in vivo.)
# The inventors assessed effect of topical TRPV1 agonist capsaicin applied after acute injury and wound in a mouse model in vivo. […] Capsaicin, a TRPV1 agonist, was later applied to the same region to determine that an unexpected high number of neurons, […] of neurons activated by injury were also TRPV1-positive.
# TRPV1 [3] = target: T1, TRPV1
# TRPV1 [4] = target: T2, TRPV1 (Homo sapiens, UniProt Q8NER1); settings: HEK293 cells transiently expressing hTRPV1
# TRPV1 [5] = target: T1, TRPV1; settings: Von frey filaments
# P2X3 = P2X3 (Mus musculus, UniProt Q3UR32); settings: 30 μM; α,β-methylene-ATP 30 μM
# TRPV1 [6] = settings: pH 5.6; 1 μM
# [7] = test system: TRPV1 pore turret domain mutants (G603-N626); settings: deletion and substitution mutations
# TRPM8 = TRPM8 (Mus musculus, UniProt Q8R4D5); settings: 30 μM; Menthol 100 μM
# TRPV4 = TRPV4 (Mus musculus, UniProt Q9EPK8); settings: 30 μM; GSK 1016790A 1 μM
# TRPV1 [8] = target: T1, TRPV1; settings: 5 nmol/mouse with capsaicin 5 nmol/mouse, paw injection
# Text: Injection of capsaicin into a paw produces a short bout of biting and licking.
# TRPA1 = TRPA1 (Mus musculus, UniProt Q8BLA8); settings: 30 μM; AITC 50 μM
# rat TRPV1 = rat TRPV1 (Rattus norvegicus, UniProt O35433); settings: 1 μM
# rTRPV1 = rTRPV1 (Rattus norvegicus, UniProt O35433)
# Protocol: To identify if the antagonists were peptides, we purified saliva through a 30 kDa filter to eliminate large proteins and then used reverse-phase HPLC to fractionate the samples (FIG. 1B). […] The resultant 37 1 mL-fractions were dried, reconstituted in HBSS and screened on HEK cells transiently transfected with TRPV1 (FIG. 1C).
# TRPV1 [9] = target: T1, TRPV1; settings: Hot-plate test 52±0.1° C.
# TRPV1 [10] = target: T1, TRPV1; assay: capsaicin-induced calcium flux in primary murine DRG neurons (plate-based/FLIPR); type: cell-based; parameters: capsaicin-induced currents in primary murine DRG neurons using whole cell patch clamp; endogenous in cells; host or cells: primary murine dorsal root ganglion (DRG) neurons; settings: DRG neuron, read-out: inhibition of capsaicin-induced calcium flux
# Text: To test the possibility that saliva may inhibit the TRPV1 heat pain receptor^12-14 in nociceptors, we collected samples of whole saliva from four human donors and ran a screen on primary murine dorsal root ganglion (DRG) neurons.
# TRPV1 [11] = target: T2, TRPV1; settings: applied topically; cited from earlier work
# T1 sequence (Q704Y3 whole entry): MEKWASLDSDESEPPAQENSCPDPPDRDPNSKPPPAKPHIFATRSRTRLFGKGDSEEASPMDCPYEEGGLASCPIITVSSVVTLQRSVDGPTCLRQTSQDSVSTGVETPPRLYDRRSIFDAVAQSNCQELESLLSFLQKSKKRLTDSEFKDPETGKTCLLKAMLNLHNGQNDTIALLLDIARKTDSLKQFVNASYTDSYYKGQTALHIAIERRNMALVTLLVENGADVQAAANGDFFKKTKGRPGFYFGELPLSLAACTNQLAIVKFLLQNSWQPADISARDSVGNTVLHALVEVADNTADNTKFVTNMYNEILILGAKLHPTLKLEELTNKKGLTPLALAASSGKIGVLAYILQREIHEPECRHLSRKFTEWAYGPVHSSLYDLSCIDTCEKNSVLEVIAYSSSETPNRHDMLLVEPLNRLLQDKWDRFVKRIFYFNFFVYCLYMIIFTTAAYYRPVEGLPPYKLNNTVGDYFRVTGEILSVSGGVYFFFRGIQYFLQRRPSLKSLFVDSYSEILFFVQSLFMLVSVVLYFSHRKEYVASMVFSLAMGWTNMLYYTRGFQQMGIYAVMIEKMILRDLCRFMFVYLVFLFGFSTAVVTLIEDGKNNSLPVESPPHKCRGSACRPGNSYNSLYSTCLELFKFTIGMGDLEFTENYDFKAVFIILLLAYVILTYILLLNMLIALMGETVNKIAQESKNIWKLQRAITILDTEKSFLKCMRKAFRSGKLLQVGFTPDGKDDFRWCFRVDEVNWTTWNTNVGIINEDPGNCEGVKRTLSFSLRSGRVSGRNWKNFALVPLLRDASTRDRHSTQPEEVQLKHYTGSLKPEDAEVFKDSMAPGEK
# T2 sequence (Q8NER1 whole entry): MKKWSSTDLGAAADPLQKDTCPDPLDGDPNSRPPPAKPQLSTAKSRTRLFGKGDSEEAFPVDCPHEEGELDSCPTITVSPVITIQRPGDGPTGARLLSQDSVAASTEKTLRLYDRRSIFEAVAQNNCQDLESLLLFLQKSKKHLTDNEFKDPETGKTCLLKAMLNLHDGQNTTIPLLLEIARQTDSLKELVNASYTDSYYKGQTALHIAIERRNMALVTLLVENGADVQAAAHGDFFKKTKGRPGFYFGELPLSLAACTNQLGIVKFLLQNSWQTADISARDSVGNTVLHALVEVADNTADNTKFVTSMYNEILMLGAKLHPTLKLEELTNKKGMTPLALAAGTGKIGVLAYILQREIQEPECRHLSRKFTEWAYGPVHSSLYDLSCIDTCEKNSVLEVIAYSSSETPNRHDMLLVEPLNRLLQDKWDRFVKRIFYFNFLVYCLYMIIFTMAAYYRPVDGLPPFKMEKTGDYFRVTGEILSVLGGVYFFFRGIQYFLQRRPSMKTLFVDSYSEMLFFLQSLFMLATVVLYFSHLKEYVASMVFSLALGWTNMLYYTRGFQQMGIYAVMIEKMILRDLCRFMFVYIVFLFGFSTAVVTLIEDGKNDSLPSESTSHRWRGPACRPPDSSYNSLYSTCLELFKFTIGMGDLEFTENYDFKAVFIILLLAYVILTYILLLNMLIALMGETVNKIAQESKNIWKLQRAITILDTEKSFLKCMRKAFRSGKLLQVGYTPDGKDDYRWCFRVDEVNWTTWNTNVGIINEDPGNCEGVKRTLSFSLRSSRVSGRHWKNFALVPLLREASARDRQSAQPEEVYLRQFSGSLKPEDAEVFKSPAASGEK
# Chain of rTRPV1 (O35433 whole entry): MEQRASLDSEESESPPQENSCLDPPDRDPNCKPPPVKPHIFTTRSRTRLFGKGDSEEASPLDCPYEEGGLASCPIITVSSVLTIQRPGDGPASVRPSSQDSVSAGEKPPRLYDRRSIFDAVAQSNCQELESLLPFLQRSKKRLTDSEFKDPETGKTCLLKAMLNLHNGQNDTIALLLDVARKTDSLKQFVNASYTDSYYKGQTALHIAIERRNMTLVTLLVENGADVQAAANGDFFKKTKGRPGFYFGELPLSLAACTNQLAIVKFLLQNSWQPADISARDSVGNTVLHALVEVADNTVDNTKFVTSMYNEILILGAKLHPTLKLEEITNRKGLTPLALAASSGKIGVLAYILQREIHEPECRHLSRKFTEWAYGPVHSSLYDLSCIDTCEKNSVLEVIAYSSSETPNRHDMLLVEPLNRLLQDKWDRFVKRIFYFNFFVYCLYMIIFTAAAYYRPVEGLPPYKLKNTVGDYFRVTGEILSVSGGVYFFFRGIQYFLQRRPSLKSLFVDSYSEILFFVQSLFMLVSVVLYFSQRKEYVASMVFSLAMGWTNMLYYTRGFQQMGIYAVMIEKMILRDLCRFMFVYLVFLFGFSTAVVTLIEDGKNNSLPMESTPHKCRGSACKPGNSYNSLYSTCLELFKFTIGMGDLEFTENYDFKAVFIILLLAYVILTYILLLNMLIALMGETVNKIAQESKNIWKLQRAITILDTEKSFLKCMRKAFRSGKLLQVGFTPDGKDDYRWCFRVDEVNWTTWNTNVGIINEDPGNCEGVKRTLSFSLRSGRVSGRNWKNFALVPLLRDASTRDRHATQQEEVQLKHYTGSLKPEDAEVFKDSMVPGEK
# Chain of rat TRPV1 (O35433 whole entry): as above
# Chain of TRPM8 (Q8R4D5 whole entry): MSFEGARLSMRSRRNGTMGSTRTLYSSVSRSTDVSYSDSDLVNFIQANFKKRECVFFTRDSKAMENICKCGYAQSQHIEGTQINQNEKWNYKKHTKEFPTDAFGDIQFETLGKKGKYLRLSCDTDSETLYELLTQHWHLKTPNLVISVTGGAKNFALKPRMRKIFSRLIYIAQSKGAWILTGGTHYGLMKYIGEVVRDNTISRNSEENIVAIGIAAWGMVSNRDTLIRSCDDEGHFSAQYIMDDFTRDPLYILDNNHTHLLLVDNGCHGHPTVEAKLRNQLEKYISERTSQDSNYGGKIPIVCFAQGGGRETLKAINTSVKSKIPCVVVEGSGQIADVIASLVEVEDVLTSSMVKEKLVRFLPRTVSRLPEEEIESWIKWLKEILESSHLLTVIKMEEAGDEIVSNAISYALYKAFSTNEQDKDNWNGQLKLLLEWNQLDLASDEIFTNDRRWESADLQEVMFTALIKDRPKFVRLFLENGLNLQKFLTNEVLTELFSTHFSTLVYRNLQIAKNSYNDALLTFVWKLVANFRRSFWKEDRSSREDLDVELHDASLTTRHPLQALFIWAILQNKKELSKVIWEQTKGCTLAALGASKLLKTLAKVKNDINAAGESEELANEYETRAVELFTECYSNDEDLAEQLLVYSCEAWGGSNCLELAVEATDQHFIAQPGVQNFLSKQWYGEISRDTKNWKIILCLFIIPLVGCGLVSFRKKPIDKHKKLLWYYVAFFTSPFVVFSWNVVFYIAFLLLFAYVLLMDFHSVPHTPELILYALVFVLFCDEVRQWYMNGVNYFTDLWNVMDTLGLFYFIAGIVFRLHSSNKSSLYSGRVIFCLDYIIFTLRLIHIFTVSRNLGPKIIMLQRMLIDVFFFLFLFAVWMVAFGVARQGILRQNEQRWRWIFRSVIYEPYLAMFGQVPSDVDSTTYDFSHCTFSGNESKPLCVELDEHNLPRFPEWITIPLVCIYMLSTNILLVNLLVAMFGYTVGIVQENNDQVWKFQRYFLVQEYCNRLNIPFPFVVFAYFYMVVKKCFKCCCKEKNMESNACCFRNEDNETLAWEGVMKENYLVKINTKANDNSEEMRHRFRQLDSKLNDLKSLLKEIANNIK
# Chain of TRPV4 (Q9EPK8 whole entry): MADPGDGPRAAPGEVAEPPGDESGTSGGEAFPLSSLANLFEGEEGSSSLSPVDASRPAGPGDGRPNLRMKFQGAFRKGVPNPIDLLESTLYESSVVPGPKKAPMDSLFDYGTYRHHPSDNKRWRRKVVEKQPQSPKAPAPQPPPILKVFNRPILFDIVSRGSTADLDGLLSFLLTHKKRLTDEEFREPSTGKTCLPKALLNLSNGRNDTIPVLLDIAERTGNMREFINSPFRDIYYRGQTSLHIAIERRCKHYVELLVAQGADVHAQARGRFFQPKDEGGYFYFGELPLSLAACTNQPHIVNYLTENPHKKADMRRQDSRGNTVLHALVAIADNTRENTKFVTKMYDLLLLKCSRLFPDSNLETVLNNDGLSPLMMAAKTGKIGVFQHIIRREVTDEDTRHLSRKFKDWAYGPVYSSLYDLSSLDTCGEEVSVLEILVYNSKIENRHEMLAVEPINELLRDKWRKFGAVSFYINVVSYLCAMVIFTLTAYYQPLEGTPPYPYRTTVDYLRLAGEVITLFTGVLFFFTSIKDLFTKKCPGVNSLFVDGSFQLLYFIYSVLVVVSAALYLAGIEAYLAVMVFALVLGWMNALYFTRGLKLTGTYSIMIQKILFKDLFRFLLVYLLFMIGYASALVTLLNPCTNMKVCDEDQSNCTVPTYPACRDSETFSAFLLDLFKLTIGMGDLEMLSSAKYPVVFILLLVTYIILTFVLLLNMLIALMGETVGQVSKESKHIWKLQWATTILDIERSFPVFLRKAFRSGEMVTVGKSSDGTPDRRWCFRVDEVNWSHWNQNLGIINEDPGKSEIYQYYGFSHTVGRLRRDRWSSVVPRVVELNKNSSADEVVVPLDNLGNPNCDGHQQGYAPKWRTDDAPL
# Chain of P2X3 (Q3UR32 whole entry): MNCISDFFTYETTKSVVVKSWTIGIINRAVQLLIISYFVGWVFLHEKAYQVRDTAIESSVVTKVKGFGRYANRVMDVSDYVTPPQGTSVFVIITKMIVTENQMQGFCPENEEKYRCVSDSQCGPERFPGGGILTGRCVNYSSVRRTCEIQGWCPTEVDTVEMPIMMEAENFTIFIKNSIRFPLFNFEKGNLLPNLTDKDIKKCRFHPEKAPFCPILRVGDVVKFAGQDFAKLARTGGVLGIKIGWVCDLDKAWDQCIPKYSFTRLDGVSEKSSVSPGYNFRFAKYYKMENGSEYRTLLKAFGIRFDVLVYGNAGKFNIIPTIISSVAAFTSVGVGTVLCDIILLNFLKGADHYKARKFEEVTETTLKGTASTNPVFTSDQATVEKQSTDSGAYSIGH
compound,measurement,setting,value
SMR3 peptide: SMR3 peptide (QRGPR; SEQ ID NO: 5) of the opiorphin family [reference compound],block of capsaicin-induced currents by opiorphin family peptides,TRPV1 [1],no such activity
"sialorphin: rat peptide sialorphin (QHNPR, SEQ ID NO: 4) of the opiorphin family (listed as Rattus norvegicus) [reference compound]",block of capsaicin-induced currents by opiorphin family peptides,TRPV1 [1],blocked capsaicin-induced currents
COc1cc(CNC(=O)CCCC/C=C/C(C)C)ccc1O [capsaicin],injury-activated neurons responding to capsaicin,[2],84%
same,injury-activated neurons responding to capsaicin,[2]; listed as Capsaicin,~86%
QRFSR [opiorphin],licking/biting response to superficial paw incision,"TRPV1 [3]; topical 10 μM, 5 s, C57 mice, vs topical saline",eliminated
same,inhibition of capsaicin-induced currents,TRPV1 [4],inhibited capsaicin-induced currents
same,mechanical hypersensitivity after capsaicin injection,TRPV1 [5],reduced
same,inhibition of calcium flux by P2X3 agonist,P2X3,did not inhibit
same,inhibition of proton-induced currents,TRPV1 [6],strongly inhibited
same,inhibitory activity on pore turret mutants,[7],loss of opiorphin inhibitory activity
same,inhibition of calcium flux by TRPM8 agonist,TRPM8,did not inhibit
same,block of capsaicin-induced currents,TRPV1 [1],effectively eliminated
same,"effect on TRPV1 currents, external application",TRPV1 [1],substantially reduced
same,"effect on TRPV1 currents, internal application",TRPV1 [1],no change in TRPV1 currents was detected
same,inhibition of capsaicin currents when applied into capsaicin application,TRPV1 [1],inhibited capsaicin currents
same,ability to block capsaicin-evoked currents after pertussis toxin,"TRPV1 [1]; PTX 1 μg/mL, 3 hours",remained intact
same,inhibition of calcium flux by TRPV4 agonist,TRPV4,did not inhibit
same,capsaicin-induced licking response,TRPV1 [8],significantly reduced
same,inhibition of calcium flux by TRPA1 agonist,TRPA1,did not inhibit
same,inhibition of resiniferatoxin action,"rat TRPV1; RTX 100 nM, HEK293 rTRPV1",inhibited the action
same,antagonism of capsaicin-evoked currents across voltages,"rat TRPV1; capsaicin 1 μM, HEK293 rat TRPV1",antagonized capsaicin-evoked currents at all voltages tested
same,peak efficacy of capsaicin reduced to,rTRPV1; 100 nM opiorphin,~50%
same,mode of inhibition versus capsaicin,rTRPV1; no rightward-shift of capsaicin curve,non-competitively
same,thermal hypersensitivity after capsaicin injection,TRPV1 [9],reduced
same,inhibition at 1 µM,TRPV1 [10],~50%
"CC(C)(C)c1ccc(/C=C/C(=O)Nc2ccc3c(c2)OCCO3)cc1 [AMG 9810, (E)-3-(4-t-butylphenyl)-N-(2,3-dihydrobenzo[b][1,4]dioxin-6-yl)acrylamide, reference compound]",acute licking of superficial paw incision wound,"TRPV1 [3]; topical 30 μM, mice",reduced
O=C(Nc1ccccc1Br)N[C@@H]1CCN(c2ccc(C(F)(F)F)cn2)C1 [SB705498],symptomatic benefit for induced itch,TRPV1 [11],not to be of symptomatic benefit
